Assays:
male C57BL/6J mice = experiment: fast-refeed (refeeding) assay, food intake; format: in vivo
Procedure: Food is removed at 6 pm for an overnight (˜16 hour) fast. Beginning at 10 am on the next morning, mice are administered with either vehicle (e.g., saline+acetic acid, pH=5) or the compound of interest. Mice are then returned to their home cages and pre-weighed food (approximately 90 grams) is immediately returned to the food hoppers in each cage. The weight of the food remaining in the food hoppers is measured at 30 minutes, 1 hour, 2 hours, and 4 hours post compound/vehicle administration. Final body weights are then recorded for the mice.
Animals: For this particular experiment, male C57BL/6J mice (Vendor: Taconic; Age: 7 weeks; Weight Range: 19-25 g) were used. The animals were housed individually during acclimation to facility (3-5 days) and throughout the study. […]
• Mice were weighed and sorted into groups based on Body Weight. • Food was removed at 6 pm for an overnight (˜16 hour) fast. […] After injections mice were returned to their home cages. • Following each injection, pre-weighed food was immediately returned to the food hoppers. • Note: food was weighed the morning injections were administered. • Mouse weighed • Food weighed (approx. 90 g) • Mouse injected • Pre-weighed food returned to hopper • Food Weights were measured at 30 min, 1 hr, 2 hr, and 4 hrs post injection. • Final body weights were recorded and mice were euthanized via CO2 asphyxiation.

GHS-R = GHS-R (Homo sapiens, UniProt Q92847); experiment: cell based assay of GHS-R antagonist/agonist activity; design: key: A refers to a compound having antagonist activity with Ki<100 nM in a cell based assay; B refers to a compound having agonist activity with EC50<100 nM in a cell based assay; C refers to a compound having antagonist activity of Ki>100 nM and <1500 nM in a cell based assay; D refers to a compound having antagonist activity with Ki, <100 nM and agonist activity with EC50<100 nM in a cell-based assay; E refers to other exemplary compounds; settings: GHS-R antagonist Ki and/or agonist EC50 class
Chain of GHS-R (Q92847 whole entry, species assumed): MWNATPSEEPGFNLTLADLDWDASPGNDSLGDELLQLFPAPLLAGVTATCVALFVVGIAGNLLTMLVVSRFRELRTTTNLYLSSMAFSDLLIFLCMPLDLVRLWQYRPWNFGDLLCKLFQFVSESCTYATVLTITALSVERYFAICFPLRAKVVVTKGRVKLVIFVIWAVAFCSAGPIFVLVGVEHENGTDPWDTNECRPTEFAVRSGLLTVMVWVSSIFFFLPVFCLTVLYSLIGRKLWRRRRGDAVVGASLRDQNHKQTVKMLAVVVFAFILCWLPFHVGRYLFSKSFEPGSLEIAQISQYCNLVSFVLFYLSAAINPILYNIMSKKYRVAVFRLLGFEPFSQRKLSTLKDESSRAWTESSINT
Method in brief: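 COS-7 cells transfected with GHS-R, labelled with [3H]-myo-inositol, preincubated in 10 mM LiCl buffer pH 7.4, then given compound 45 min at 37 °C; [3H]-IP isolated by anion exchange. Alternatively, CREB-luciferase reporter in transfected HEK293 with 5 h compound exposure. IC50/EC50 by nonlinear regression.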

Compound	feeding activity of mice in the fast refeed assay (male C57BL/6J mice)	Activity (GHS-R)
substance P	alters feeding activity	
CC(=O)OCC(=O)N1CC2(CCN(C(=O)[C@@H](COCc3ccccc3)NC(=O)CN(C)C)CC2)c2ccccc21 [Compound 71]		E
CC(C)(C)NCCS(=O)(=O)N[C@H](COCc1ccccc1)C(=O)N1CCC2(CC1)CN(S(C)(=O)=O)c1ccccc12 [Compound 145]		E
CN(C)CCCS(=O)(=O)N[C@H](COCc1ccccc1)C(=O)N1CCC2(CC1)CN(S(C)(=O)=O)c1ccccc12 [Compound 156]		E
CCN1CCC=C(C(=O)N[C@H](COCc2ccccc2)C(=O)N2CCC3(CC2)CN(S(C)(=O)=O)c2ccccc23)C1.Cl [Compound 2]		D (D refers to a compound having antagonist activity with Ki, <100 nM and agonist activity with EC50<100 nM in a cell-based assay)
CC(C)CCN1CC=C(C(=O)N[C@H](COCc2ccccc2)C(=O)N2CCC3(CC2)CN(S(C)(=O)=O)c2ccccc23)CC1 [Compound 102]		E
CC(C)(C)OC(=O)N[C@H](COCc1ccccc1)C(=O)N1CCC2(CC1)CN(S(=O)(=O)Cc1ccccc1)c1ccccc12 [Compound 67]		E
CN1CCN(CC(=O)N[C@H](COCc2ccccc2)C(=O)N2CCC3(CC2)CN(S(C)(=O)=O)c2ccccc23)CC1 [Compound 91]		E
CC(C)N(C)CCS(=O)(=O)N[C@H](COCc1ccccc1)C(=O)N1CCC2(CC1)CN(S(C)(=O)=O)c1ccccc12 [Compound 21]		C (C refers to a compound having antagonist activity of Ki>100 nM and <1500 nM in a cell based assay)
CS(=O)(=O)N1CC2(CCN(C(=O)[C@@H](COCc3ccccc3)NC(=O)C3=CCCNC3)CC2)c2ccccc21 [Compound 107]		E
CS(=O)(=O)N1CC2(CCN(C(=O)[C@@H](COCc3ccccc3)NC(=O)C3(N)CCCC3)CC2)c2ccccc21 [Compound 134]		B (B refers to a compound having agonist activity with EC50<100 nM in a cell based assay)
CC(C)(C)OC(=O)N[C@H](COCc1ccccc1)C(=O)N1CCC2(CC1)CN(S(=O)(=O)CC(F)(F)F)c1ccccc12 [Compound 64]		E
CCCN1CCC(C(=O)N[C@H](COCc2ccccc2)C(=O)N2CCC3(CC2)CN(S(C)(=O)=O)c2ccccc23)CC1 [Compound 38]		C (C refers to a compound having antagonist activity of Ki>100 nM and <1500 nM in a cell based assay)
CN1CCC(S(=O)(=O)N[C@H](COCc2ccccc2)C(=O)N2CCC3(CC2)CN(S(C)(=O)=O)c2ccccc23)CC1 [Compound 143]		A (A refers to a compound having antagonist activity with Ki<100 nM in a cell based assay)
COCC(=O)N[C@H](COCc1ccccc1)C(=O)N1CCC2(CC1)CN(S(C)(=O)=O)c1ccccc12 [Compound 31]		C (C refers to a compound having antagonist activity of Ki>100 nM and <1500 nM in a cell based assay)
CC(C)N1CCC=C(C(=O)N[C@H](COCc2ccccc2)C(=O)N2CCC3(CC2)CN(S(C)(=O)=O)c2ccccc23)C1 [Compound 12]		A (A refers to a compound having antagonist activity with Ki<100 nM in a cell based assay)
COCC(=O)N1CC2(CCN(C(=O)[C@@H](COCc3ccccc3)NC(=O)CN(C)C)CC2)c2ccccc21 [Compound 73]		E
CC(C)(C)OC(=O)N[C@H](COCc1ccccc1)C(=O)N1CCC2(CC1)CN(C(=O)Cn1ccnc1)c1ccccc12 [Compound 66]		E
